One may read the IC50 as the point on the concentration scale where inhibition reaches its midpoint. A high value points to lower potency.

One assay concerns HT-29. The experiment in a line: Cytotoxicity against human HT-29 cells by MTT assay. The class given is functional, cell-based. (In general: Tetrazolium assays rely on reduction of a dye to a coloured formazan, in cell work by metabolically active cells.)
The subject of the next assay is A549. The experiment in a line: Cytotoxicity against human A549 cells by MTT assay. It counts as functional, cell-based.

Converted amounts (≈) assume the structure as drawn.

On to `COc1cc(C(=O)OC[C@H]2O[C@@H](Oc3ccc(O)c4c3C(O)CCC4=O)[C@H](O)[C@@H](O)[C@@H]2O)cc(OC)c1O` (some centres undefined), for which the IC50 in the assay with HT-29 and with A549 was above 50 µg/mL throughout.

As for `COC(=O)c1cc(O[C@H]2O[C@@H](CO)[C@H](O)[C@@H](O)[C@@H]2O)c2c(O)cccc2c1O`, the IC50 with HT-29 was 8.06 µg/mL (≈ 20.3 µM); in the assay with A549, 7.79 µg/mL (≈ 19.7 µM).

For the compound `COC1=CC(=O)c2c(O)cccc2C1=O`, the IC50 with HT-29 stood at 2.63 µg/mL (≈ 12.9 µM); with A549 it was 0.08 µg/mL (≈ 0.392 µM). In the same order, the values of `COc1cc2ccc1Oc1cc(ccc1O)CC(O[C@@H]1O[C@H](CO)[C@@H](O)[C@H](O)[C@H]1O)C(=O)CCCC2` (some centres undefined) are above 50 µg/mL and above 50 µg/mL. As to `COC(=O)C(O)(c1cc2c(c3oc([C@]4(C)C[C@@H]4C)cc(=O)c13)C(=O)c1c(ccc([C@H]3C[C@](C)(N(C)C)[C@H](O[C@@H]4C[C@H](OC)[C@H](O)[C@@H](C)O4)[C@H](C)O3)c1O)C2=O)[C@H]1O[C@H](C)[C@@H](O)[C@@H](OC)[C@@H]1O` (some centres undefined) [ALTROMYCIN B], the IC50 in the assay with HT-29 was found to be 3.98 µg/mL (≈ 4.31 µM).

Values taken from ChEMBL document CHEMBL1150886, “Cytotoxic compounds from the roots of Juglans mandshurica” (J Nat Prod, 1998).
